The nature of data set [1]: Proteolytic stability in human serum (HPLC). Format: in vitro ADME. To be noted: 37 °C. Here is the method:
These compounds were further explored towards degradation by proteolytic enzymes towards degradation. Compound 5a was investigated for proteolytic stability in the presence of human serum. It was incubated with human serum at 37 °C, and aliquots of the reaction mixture were analyzed via HPLC at different time points up to 2 h. The concentration of Compound 5a was measured by integrating the area under the curve (AUC) and correspondingly calculated from the standard curve of 5a at different concentrations (cf. Supplementary Materials, page no. 81–82).
The HPLC chromatogram of serum incubated with compound 5a for 80 min was illustrated in Figure 5. […]
HPLC analysis was carried out to evaluate the proteolytic stability of selected conjugate 5a in the presence of human serum. First, different concentrations of Compound 5a were analyzed using the analytical HPLC, and a standard curve was plotted for the different concentrations of Compound 5a versus the area under the curve. […] The initial time was recorded, and 100 μL aliquots of the reaction mixture were removed and added to methanol (200 μL) for precipitation of serum proteins in human serum. […] A linear gradient from 10% to 100% acetonitrile/water in 65 min with a flow rate of 1.0 mL/min was used, and the absorbance of the eluting peaks was detected at 254 nm. […]

In another data set the target is T1, EGFR (Homo sapiens, UniProt P00533).
T1 construct: purchased Reaction Biology Corporation
Kind of data set: Protein kinase assay (Reaction Biology). To be noted: duplicate, 200 μM ATP, read-out: % Enzyme Activity (Relative to DMSO Controls) EGFR. In kind it is biochemical. Here is the method:
(§1) Therefore, selected compound 5a was screened against several protein kinases to explore the potential of these hybrid compounds as kinase inhibitors. The screening of compound 5a was performed on a panel of 9 kinases, viz., ABL1, c-Kit, c-Src, CDK2/cyclin A1, CSK, EGFR, mTOR/FRAP1, p38a/MAPK14, PKCa, and PI3K, at a dose of 20 μM. The respective positive controls were used for each kinase, and the kinase reaction was performed at 200 μM ATP concentration for all the kinases except for PI3K, which was performed at 10 µM ATP (Table 2). […] It appeared that compound 5a containing a 3-position substitution with an isoxazole ring and a 4-position with a carbonyl group has a detrimental effect on kinase inhibition. Previously 3-substituted benzopyran compound with a short alkyl chain of urea (NH-CO-NH-Et/Me/iPr) was reported with Abl kinase inhibitory activity in the range of 4–27 μM [36]. […] Due to prominent antiproliferative activity, these compounds may have some other targets for anticancer activity.
Compound 5a was tested at a single dose of 20 μM against 9 kinases, viz., Abl1, c-Kit, c-Src, CDK2/cyclin A1, CSK, EGFR, mTOR/FRAP1, p38a/MAPK14, PKCa, and PI3K using our previously reported protocol in duplicate by Reaction Biology Corporation. The respective positive controls, e.g., staurosporine for all the kinases, except SB202190 for P38a/MAP14 and P1-103 for mTOR/FRAP1, were used, and the kinase reaction was performed at 200 μM ATP concentration for all the kinases except for PI3K, which was performed at 10 µM ATP.

Data set [2] concerns ABL1, c-Kit, c-Src, CDK2/cyclin A1, CSK, EGFR, mTOR/FRAP1, p38a/MAPK14, PKCa, and PI3K. Kind of data set: Protein kinase panel screen, overall. Format: biochemical. To be noted: single dose of 20 μM, all kinases screened. The method, then: as §1
Compound 5a was tested at a single dose of 20 μM against 9 kinases, viz., Abl1, c-Kit, c-Src, CDK2/cyclin A1, CSK, EGFR, mTOR/FRAP1, p38a/MAPK14, PKCa, and PI3K using our previously reported protocol in duplicate by Reaction Biology Corporation. […]

For the next data set, the system named is MDA-MB-231 cells. Kind of data set: Annexin V-FITC/PI apoptosis assay by flow cytometry. In kind it is cell-based, human. Here is the method:
In accordance with the MTS assay, compound 5a had promising antiproliferative action. Therefore, we attempted to study the mechanism triggering cell death. […] MDA-MB-231 cells were treated with 5 μM of compound 5a and Dox (5 μM) as a positive control and incubated for 72 h, then double-stained carefully by membrane-linked protein Annexin-V fluorescein isothiocyanate (FITC) and propidium iodide (PI) for flow cytometry analysis. Normally, in the early stages of apoptosis, phosphatidylserine flips from the inner cell membrane to the surface of the cell membrane. […] PI is a nucleic acid dye that can only cross the membrane of advanced apoptosis and necrotic cells and redden the nucleus. Consequently, when the treated cells are double stained by the two fluorescent dyes, early and late apoptosis and necrotic cells can be clearly distinguished. […] These findings illustrated that compound 5a mainly leads to the early apoptosis of MDA-MB-231 cells.
The assay was detected using a commercially available kit (FITC Annexin V Apoptosis Detection Kit II, BD Biosciences, San Jose, CA, USA) per the manufacturer’s instructions. Briefly, MDA-MB-231 cells were seeded in 6-well plates at a concentration of 1 × 10^6 cells/well for 24 h; after that, cells were treated with 5a (5 µM) for 72 h. Dox (5 µM) was used as a positive control. After the treatment period, cells were washed with cold phosphate-buffered saline (PBS) twice. The cells were collected after trypsin treatment and centrifugated to get a pellet, and a binding buffer (1X) was used to resuspend the cells. Annexin V (5 μL) and propidium iodide (PI) (5 μL) were mixed with 100 μL of the suspended cells (1 × 10^6 cells/mL), followed by 15 min incubation at room temperature in the dark. The mixture was diluted by adding 400 μL of 1× binding buffer, and the cells were analyzed using flow cytometry, FACS Verse (BD Biosciences, USA). The experiment was repeated three times independently.
A general note: Flow cytometry measures light scatter and fluorescence of single cells or particles in a stream.

SMILES strings stand for the structures. Entries after “also recorded” stand apart in the source; their conditions may differ.

T1 sequence (P00533 25-1210): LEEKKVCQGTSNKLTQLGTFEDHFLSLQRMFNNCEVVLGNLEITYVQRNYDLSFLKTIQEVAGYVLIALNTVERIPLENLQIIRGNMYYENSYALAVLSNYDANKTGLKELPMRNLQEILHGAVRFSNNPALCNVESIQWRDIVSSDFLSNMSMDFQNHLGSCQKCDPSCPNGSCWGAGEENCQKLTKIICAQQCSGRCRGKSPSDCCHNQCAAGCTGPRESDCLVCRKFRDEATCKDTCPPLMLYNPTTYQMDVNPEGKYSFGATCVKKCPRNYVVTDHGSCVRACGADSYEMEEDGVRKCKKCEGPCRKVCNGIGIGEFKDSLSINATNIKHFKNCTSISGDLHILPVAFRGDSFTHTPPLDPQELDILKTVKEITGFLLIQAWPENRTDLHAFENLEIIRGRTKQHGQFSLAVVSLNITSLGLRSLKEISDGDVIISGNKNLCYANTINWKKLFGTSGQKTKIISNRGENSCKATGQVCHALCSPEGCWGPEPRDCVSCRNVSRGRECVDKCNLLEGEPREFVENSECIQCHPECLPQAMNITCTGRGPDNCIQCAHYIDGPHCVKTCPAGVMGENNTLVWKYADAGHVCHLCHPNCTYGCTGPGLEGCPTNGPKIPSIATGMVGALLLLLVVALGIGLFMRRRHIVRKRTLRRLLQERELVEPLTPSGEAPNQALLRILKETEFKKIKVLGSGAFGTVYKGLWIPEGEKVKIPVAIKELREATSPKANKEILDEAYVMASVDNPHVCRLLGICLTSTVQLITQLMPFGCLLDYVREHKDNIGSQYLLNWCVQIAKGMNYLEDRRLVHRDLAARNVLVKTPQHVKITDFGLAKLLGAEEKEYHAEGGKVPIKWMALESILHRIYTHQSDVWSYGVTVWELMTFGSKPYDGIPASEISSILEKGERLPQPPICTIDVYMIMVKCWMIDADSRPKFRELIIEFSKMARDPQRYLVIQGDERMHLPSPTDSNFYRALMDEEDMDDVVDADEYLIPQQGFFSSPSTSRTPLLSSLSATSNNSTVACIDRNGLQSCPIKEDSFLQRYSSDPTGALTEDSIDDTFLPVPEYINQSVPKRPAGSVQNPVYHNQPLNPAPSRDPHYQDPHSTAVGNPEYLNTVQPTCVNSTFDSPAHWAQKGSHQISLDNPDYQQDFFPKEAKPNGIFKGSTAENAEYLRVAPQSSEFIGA

Turning to `Cc1noc(C)c1C(=O)OCc1coc2ccccc2c1=O` [Compound 5a, (4-Oxo-4H-1-benzopyran-3-yl)methyl 3,5-dimethylisoxazole-4-carboxylate], the “degradation on incubation with human serum” value in data set [1] (after 2 h of incubation with human serum) is “completely degraded”. Besides, in data set [1] (human, human serum (25% v/v in RPMI media), human serum), the half-life (usually the time needed for the level to fall by half in the phase considered) at 50 µM is approximately 13.6 min. Also, the remaining activity at 20 µM on EGFR is 99.8%. For the same compound, the “kinase inhibitory activity (in words)” value in data set [2] is “inactive; also recorded: did not show protein tyrosine kinase inhibitory activity”. Further, the “induced apoptosis in MDA-MB-231” value in the data set with MDA-MB-231 cells (5 μM concentration, compared to untreated cells) came to 50.8%. Moreover, in the data set with MDA-MB-231 cells (MDA-MB-231, 5 μM, 72 h), the “Early Apoptosis” value is 47.52% and the “Late Apoptosis” value was found to be 3.28%.

The values above are taken from paper PMC10224329, “Design, Synthesis, and Antiproliferative Activity of Benzopyran-4-One-Isoxazole Hybrid Compounds” (Molecules, 2023).
